Source: patent US7098372B1, “Pharmaceutical compositions and methods of using secreted frizzled related protein” (Wyeth, priority 1999, dated 2006)

How the values were obtained:
Format in all cases: cell-based, human
hOB-03-C5 cells [1] = assay: Apoptosis by flow cytometry using annexin V-FITC and propidium iodide
Procedure: Apoptosis was measured by flow cytometry using annexin V-FITC.
(§1) The hypothesis that up-regulation of SFRP-1/FRP-1/SARP-2 gene expression accelerates hOB cell death, while down-regulation of SFRP-1/FRP-1/SARP-2 gene expression suppresses cell death, was next examined. […] The next day, the 6-well plates were rinsed with PBS, placed in BSA-medium, and treated at 39° C. in the absence or presence of either 100 nM PGE2 (in order to up-regulate SFRP-1/FRP-1/SARP-2 steady-state mRNA levels; panels A & B), or 0.01–1.0 nM TGF-β1 (in order to down-regulate SFRP-1/FRP-1/SARP-2 message levels; panel C). Incubating cells in serum-free medium is a common method to induce apoptosis (Melkonyan et al. 1997 Proc. Natl. Acad. Sci. USA 94: 13636–13641), and the hOB-03-C5, hOB-03-CE6 and hOB-01-C1 cell lines all stopped dividing and gradually died under these conditions. […] In contrast, treatment of the hOB-01-C1 cells with TGF-β1 increased cell viability about 2-fold in a dose-dependent manner. […] This observation was consistent with the induction of apoptosis, which is known to result in cytoplasmic blebbing, the loss of water and a decrease in cell volume (Mesner and Kaufmann 1997 in Advances in Pharmacology, vol. 41, pp. 57–88). […] Finally, treatment of the hOB-03-C5 cells with PGE2 increased annexin V (a specific marker for apoptosis) binding to the cell as measured by flow cytometry (FIG. 11).

hOB-03-C5 cells [2] = assay: Generation of histone-associated DNA fragments
Procedure: as §1

hOB-01-C1-PS-09 cells = assay: Hepatocyte growth factor (HGF) secretion by hOB-01-C1-PS-09 cells; conditions: 39° C.

Row | Molecule | annexin V binding to the cell (hOB-03-C5 cells [1]) | number of apoptotic cells (annexin V but not propidium iodide) (hOB-03-C5 cells [1]; increasing concentrations) | number of necrotic cells (annexin V and propidium iodide) (hOB-03-C5 cells [1]; increasing concentrations) | number of viable cells (no annexin V or propidium iodide staining) (hOB-03-C5 cells [1]; increasing concentrations) | histone-associated DNA fragments (hOB-03-C5 cells [2]) | HGF secretion (hOB-01-C1-PS-09 cells)
1 | CCCCC[C@H](O)/C=C/[C@H]1[C@H](O)CC(=O)[C@@H]1C/C=C\CCCC(=O)O [PGE2, prostaglandin E2] | increased | increases | increases | declines | resulted in the generation of histone-associated DNA fragments | 
2 | human transforming growth factor-β1 [TGF-β1] |  |  |  |  |  | dose-dependent decrease
